Experimental data from patent publication US8445469B2, “18-methyl-19-nor-17-pregn-4-ene-21,17-carbolactones, as well as pharmaceutical preparations that contain the latter” (Bayer Intellectual Property GmbH, priority 2004, dated 2013).

Tested on: pregnancy maintenance (peripheral gestagenic activity)
Assay: pregnancy maintenance test in ovariectomized rats
Type: in vivo, rat
Conditions: ovariectomized pregnant rats, subcutaneous once daily with estrone 5 μg/kg/day, day 8 to day 15 or 21
Text: Executing the Pregnancy Maintenance Test in Rats:
In pregnant rats, removal of the corpora lutea or castration induces abortion. By exogenous supplying of progestins (gestagens) in combination with a suitable dose of estrogens, pregnancy can be maintained. The pregnancy maintenance test in ovariectomized rats serves to determine peripheral gestagenic activity of a compound.
Rats are paired up during the proestrus overnight. Mating is monitored on the morning of the following day by vaginal smear inspection. The presence of sperm is considered in this case as day 1 of the beginning of pregnancy. On day 8 of pregnancy, the animals are ovariectomized under ether anesthesia. […]
At the end of the test (day 15 or day 21), the animals are sacrificed under CO2 atmosphere, and live fetuses (fetuses with beating hearts) and implantation sites (early resorptions and dead fetuses including autolysis and atrophic placentas) in both uterine horns are counted. […] In uteri without fetuses or implantation sites, the number of nidation sites is determined by staining with 10% ammonium sulfide solution. The pregnancy maintenance rate is calculated as the quotient of the number of living fetuses and the total number of nidation sites (both resorbed and dead fetuses as well as nidation sites). […]

Compound: CCC12CCC3C4CCC(=O)C=C4C4CC4C3C1C1CC1C21CCC(=O)O1 (stereo not drawn) [compound 3a, 18-Methyl-6α,7α-15β,16β-dimethylene-3-oxo-19-nor-17-pregn-4-ene-21,17-carbolactone]
- pregnancy-maintaining dose (ED50): 120 µg/kg/day
